According to US8729269B2, “Substituted piperidino phenyloxazolidinones having antimicrobial activity with improved in vivo efficacy” (Wockhardt Limited, priority 2003, dated 2014):
Converted amounts (≈) assume the structure as drawn.

Assays:
[1] = tested on: Methicilin resistant Staphylococcus aureus 32 (MRSA 32); assay: Minimum Inhibitory Concentration (MIC) determination, agar dilution; format: cell-based; details: Mueller Hinton agar, 24 hrs at 35° C.
Description: (§1) Overnight grown cultures of Methicilin resistant Staphylococcus aureus 32 (MRSA 32), Methicilin resistant Staphylococcus epidermidis 118 (MRSE 118), Vancomycin resistant enterococci 303 (VRE 303) in Tryptic Soya broth were diluted in Mueller Hinton Broth to give optical density matching with MacFarland tube 0.5 standard. Cultures were further diluted 1:10 in Mueller Hinton broth. Using Denley's multipoint inoculator, 10^4 cells were deposited on Mueller Hinton agar (Difco) containing range of 2 fold dilutions of test compounds. These plates were incubated for 24 hrs at 35° C. and MIC results recorded. MIC is defined as minimum drug concentration that inhibits test organisms. For determining MIC of test compounds against Streptococcus pneumoniae 49619 (SPN 49619) and Streptococcus pyogenes 801 (SPY 801), Mueller Hinton agar containing 5% sheep blood was employed.

[2] = tested on: Methicilin resistant Staphylococcus epidermidis 118 (MRSE 118); assay: as above; format: cell-based; details: Mueller Hinton agar, 24 hrs at 35° C.
Description: as §1

[3] = tested on: Vancomycin resistant enterococci 303 (VRE 303); assay: as above; format: cell-based; details: Enterococcus, Mueller Hinton agar, 24 hrs at 35° C.
Description: as §1

[4] = tested on: Streptococcus pneumoniae 49619 (SPN 49619); assay: Minimum Inhibitory Concentration (MIC) determination, agar with 5% sheep blood; format: cell-based; details: Mueller Hinton agar containing 5% sheep blood
Description: as §1

[5] = tested on: Streptococcus pyogenes 801 (SPY 801); assay: as above; format: cell-based; details: Mueller Hinton agar containing 5% sheep blood
Description: as §1

[6] = tested on: methicillin resistant Staphylococcus aureus strain MRSA 32; assay: Murine Assay Procedure (in vivo efficacy, MRSA 32 infection); details: swiss mice infected intraperitoneally with MRSA 32, oral gavage 1 h after infection, repeat dose 3 hrs later, percentage survival on Day 7
Description: Oxazolidinone new chemical entities (NCEs) were evaluated for their in vivo efficacy in a murine infection caused by multi-drug resistant, methicillin resistant Staphylococcus aureus strain, referred to as MRSA 32, a clinical isolate obtained from a hospitalized patient. The procedure used for the murine assay is as follows:
Four weeks old swiss mice of 18-22 gm body weight were infected with MRSA 32 strain suspended in 5% Hog gastric mucin. The infecting dose of bacteria was set at 1-2×10^8 CFU/animal. The infecting dose was administered in 0.5 ml volume injected into peritonial cavity of mice. The treatment with oxazolidinone NCEs was started one hour after infection by administering 100-200 μl of the suspensions of oxazolidinone compounds in 5% Tween 80 by oral gavage. A repeat dose was similarly administered 3 hrs later. Each oxazolidinone NCE was tested at 2-3 different dosages in the range of 2.5 mg/kg to 20 mg/kg. In each dose group 6 mice were included. As an infection control group 12 mice were infected with MRSA 32 strain without giving any treatment. For compounds affording protection of MRSA infected mice, ED50 dosages were calculated on the basis of percentage survival on Day 7 after infection.

Row | Structure (SMILES) | MIC [1] [µg/mL] | MIC [2] [µg/mL] | MIC [3] [µg/mL] | MIC [4] [µg/mL] | MIC [5] [µg/mL] | ED50 [6] [mg/kg]
1 | CC(=O)NC[C@H]1CN(c2ccc(N3CCC(C)(O)CC3)c(F)c2)C(=O)O1 [Example 17, (S)—N-{3-[4-(4-Methyl-4-hydroxypiperidin-1-yl)-3-fluorophenyl]-2-oxo-oxazolidin-5-ylmethyl}-acetamide] | 8 (≈ 21.9 µM) | > 32 | > 32 | > 16 | > 16 | 10
2 | CC(=O)NC[C@H]1CN(c2ccc(N3CCC(O)(C#N)CC3)c(F)c2)C(=O)O1 [Example 19, (S)—N-{3-[4-(4-Cyano-4-hydroxypiperidin-1-yl)-3-fluorophenyl]-2-oxo-oxazolidin-5-ylmethyl}-acetamide] | 4 (≈ 10.6 µM) | 0.5 (≈ 1.33 µM) | 4 (≈ 10.6 µM) | 4 (≈ 10.6 µM) | 8 (≈ 21.3 µM) | 5
3 | CC(=O)NC[C@H]1CN(c2ccc(N3CCC(O)(CC#N)CC3)c(F)c2)C(=O)O1 [Example 21, (S)—N-{3-[4-(4-Cyanomethyl-4-hydroxypiperidin-1-yl)-3-fluorophenyl]-2-oxo-oxazolidin-5-ylmethyl}-acetamide] | 4 (≈ 10.2 µM) | 1 (≈ 2.56 µM) | 4 (≈ 10.2 µM) | 1 (≈ 2.56 µM) | 1 (≈ 2.56 µM) | 2.5
4 | CC(=O)NC[C@H]1CN(c2ccc(N3CCC(O)(CN=[N+]=[N-])CC3)c(F)c2)C(=O)O1 [Example 25, (S)—N-{3-[4-(4-Azidomethyl-4-hydroxypiperidin-1-yl)-3-fluorophenyl]-2-oxo-oxazolidin-5-ylmethyl}-acetamide] | 4 (≈ 9.84 µM) | 1 (≈ 2.46 µM) | 2 (≈ 4.92 µM) | 2 (≈ 4.92 µM) | 2 (≈ 4.92 µM) | 5
5 | COCC1(O)CCN(c2ccc(N3C[C@H](CNC(C)=O)OC3=O)cc2F)CC1 [Example 33, (S)—N-{3-[4-(4-Methoxymethyl-4-hydroxypiperidin-1-yl)-3-fluorophenyl]-2-oxo-oxazolidin-5-ylmethyl}-acetamide] | 8 (≈ 20.2 µM) | 4 (≈ 10.1 µM) | 4 (≈ 10.1 µM) | 2 (≈ 5.06 µM) | 2 (≈ 5.06 µM) | 10
6 | C=CCC1(O)CCN(c2ccc(N3C[C@H](COS(C)(=O)=O)OC3=O)cc2F)CC1 [Example 41] | 8 (≈ 18.7 µM) | 8 (≈ 18.7 µM) | 8 (≈ 18.7 µM) | 16 (≈ 37.3 µM) | 16 (≈ 37.3 µM) | 10
7 | CC(=S)NC[C@H]1CN(c2ccc(N3CCC(C#N)(Nc4ccc(C#N)cc4)CC3)c(F)c2)C(=O)O1 [Example 87, (S)—N-{3-[4-(4-(1-(4-Cyanophenylamino))-4-cyanopiperidin-1-yl)-3-fluorophenyl]-2-oxo-oxazolidin-5-ylmethyl}-thioacetamide] | 1 (≈ 2.03 µM) | 0.5 (≈ 1.02 µM) | 0.4 (≈ 0.812 µM) | 0.8 (≈ 1.62 µM) | 0.8 (≈ 1.62 µM) | 10
8 | CC(=O)NC[C@H]1CN(c2ccc(N3CCC4(CC3)C[C@H]4C#N)c(F)c2)C(=O)O1 [Example 98, (1R,5S)—N-{3-[4-(1-cyano-6-aza-spiro[2.5]oct-6-yl)-3-fluorophenyl]-2-oxo-oxazolidin-5-ylmethyl}-acetamide] | 2 (≈ 5.18 µM) | 1 (≈ 2.59 µM) | 2 (≈ 5.18 µM) | 1 (≈ 2.59 µM) | 1 (≈ 2.59 µM) | 5
9 | CC(=O)NC[C@H]1CN(c2ccc(N3CCC4(CC3)C[C@@H]4C#N)c(F)c2)C(=O)O1 [Example 99, (1S,5S)—N-{3-[4-(1-cyano-6-aza-spiro[2.5]oct-6-yl)-3-fluorophenyl]-2-oxo-oxazolidin-5-ylmethyl}-acetamide] | 2 (≈ 5.18 µM) | 1 (≈ 2.59 µM) | 2 (≈ 5.18 µM) | 0.5 (≈ 1.29 µM) | 0.5 (≈ 1.29 µM) | 5
10 | CC(=O)NC[C@H]1CN(c2ccc(N3CCC4(CC3)NCC[S+]4[O-])c(F)c2)C(=O)O1 (stereo partly drawn) [Example 112, (S)—N-{3-[4-(4,8-diaza-1-sulfinyl-spiro[4.5]dec-8-yl)-3-fluorophenyl]-2-oxo-oxazolidin-5-ylmethyl}-acetamide] | 4 (≈ 9.42 µM) | 1 (≈ 2.36 µM) | 2 (≈ 4.71 µM) | 2 (≈ 4.71 µM) | 2 (≈ 4.71 µM) | 10
11 | CC(=O)NC[C@H]1CN(c2ccc(N3CCC4(CC3)SCCN4C)c(F)c2)C(=O)O1 [Example 113, (S)—N-{3-[4-(8-aza-1-thia-4-(N-methyl)-spiro[4.5]dec-8-yl)-3-fluorophenyl]-2-oxo-oxazolidin-5-ylmethyl}-acetamide] | 4 (≈ 9.47 µM) | 1 (≈ 2.37 µM) | 4 (≈ 9.47 µM) | 2 (≈ 4.73 µM) | 2 (≈ 4.73 µM) | 10
12 | CC(=O)NC[C@H]1CN(c2ccc(N3CCC4(CC3)COCO4)c(F)c2)C(=O)O1 [Example 125, (S)—N-{3-[4-(1,3-dioxa-8-aza-spiro[4.5]dec-8-yl)-3-fluorophenyl]-2-oxo-oxazolidin-5-ylmethyl}-acetamide] | 4 (≈ 10.2 µM) | 2 (≈ 5.08 µM) | 4 (≈ 10.2 µM) | 2 (≈ 5.08 µM) | 2 (≈ 5.08 µM) | 10
13 | CS(=O)(=O)OC[C@H]1CN(c2ccc(N3CCC4(CC3)COCO4)c(F)c2)C(=O)O1 [Example 129, (R)—N-{3-[4-(1,3-dioxa-8-aza-spiro[4.5]dec-8-yl)-3-fluorophenyl]-2-oxo-oxazolidin-5-ylmethyl}-methanesulfonate] | 8 (≈ 18.6 µM) | 4 (≈ 9.29 µM) | 16 (≈ 37.2 µM) | 8 (≈ 18.6 µM) | 8 (≈ 18.6 µM) | 5
14 | CC(=O)NC[C@H]1CN(c2cc(F)c(N3CCC4(CC3)OCCO4)c(F)c2)C(=O)O1 [Example 130, (S)—N-{3-[4-(1,4-dioxa-8-aza-spiro[4.5]dec-8-yl)-3,5-difluorophenyl]-2-oxo-oxazolidin-5-ylmethyl}-acetamide] | 4 (≈ 9.72 µM) | 2 (≈ 4.86 µM) | 4 (≈ 9.72 µM) | 2 (≈ 4.86 µM) | 2 (≈ 4.86 µM) | 5
15 | CC(=O)NC[C@H]1CN(c2ccc(N3CCC4(OCCO4)C(F)C3)c(F)c2)C(=O)O1 (stereo partly drawn) [Example 133, (S)—N-{3-[4-(1,4-dioxa-6-fluoro-8-aza-spiro[4.5]dec-8-yl)-3-fluorophenyl]-2-oxo-oxazolidin-5-ylmethyl}-acetamide] | 4 (≈ 9.72 µM) | 2 (≈ 4.86 µM) | 4 (≈ 9.72 µM) | 2 (≈ 4.86 µM) | 2 (≈ 4.86 µM) | 5
16 | CS(=O)(=O)OC[C@H]1CN(c2cc(F)c(N3CCC4(CC3)OCCO4)c(F)c2)C(=O)O1 [Example 146, (R)—N-{3-[4-(1,4-dioxa-8-aza-spiro[4.5]dec-8-yl)-3,5-difluorophenyl]-2-oxo-oxazolidin-5-ylmethyl}-methanesulfonate] | 4 (≈ 8.92 µM) | 2 (≈ 4.46 µM) | 4 (≈ 8.92 µM) | 4 (≈ 8.92 µM) | 4 (≈ 8.92 µM) | 2.5
17 | CC(=O)NC[C@H]1CN(c2ccc(N3CCC4(CC3)COCCO4)c(F)c2)C(=O)O1 [Example 160, (S)—N-{3-[4-(1,4-dioxa-9-aza-spiro[5.5]undec-9-yl)-3-fluorophenyl]-2-oxo-oxazolidin-5-ylmethyl}-acetamide] | 4 (≈ 9.82 µM) | 1 (≈ 2.45 µM) | 8 (≈ 19.6 µM) | 4 (≈ 9.82 µM) | 4 (≈ 9.82 µM) | 10
